Laboratory results from PMC8065212, “The active form of the influenza cap-snatching endonuclease inhibitor baloxavir marboxil is a tight binding inhibitor” (The Journal of Biological Chemistry, 2021).
“And” between values parts separate entries of the source, which are not always exact repeats. Equal values may be shown once. “Also recorded” adds a separate entry of the source.

Experiments:
[1] = target: T1, FluB-ht PA I38T (Influenza B virus, UniProt Q5V8Z9, I38T); type: biochemical, Influenza B (B/Memphis/13/03)
[2] = test system: FluB-ht PA I38T; type: biochemical, Influenza B (B/Memphis/13/03)
[3] = target: T1, FluB-ht PA I38T; type: biochemical, Influenza B (B/Memphis/13/03); remark: listed apart in the source
[4] = target: T1, FluB-ht PA I38T; type: biochemical, Influenza B (B/Memphis/13/03); remark: listed apart in the source
[5] = test system: influenza A I38 mutants; conditions: cited from earlier work
[6] = test system: influenza B I38 mutants; conditions: cited from earlier work
[7] = test system: influenza virus; conditions: cited from earlier work

Structure (SMILES) | slope of plot of IC50 versus enzyme concentration [1] | decrease in inhibition (difference in IC50), PA I38T versus WT [2] | increase of Ki^app, PA I38T with respect to WT [2] | inhibition of endonuclease activity by order of addition [3] | BXA concentration at which an effect of preincubation is observed [4] | effect of preincubation length on activity [4] | increase in EC50 values with mutations at position I38 [5] | increase in EC50 values with mutations at position I38 [6] | increase in EC50 values of mutant viruses [7]
O=C1c2c(O)c(=O)ccn2N([C@@H]2c3ccccc3SCc3c2ccc(F)c3F)[C@@H]2COCCN12 [BXA, baloxavir acid] | 0.58 and ~0.5 | approximately threefold decrease | ~18 fold | no inhibition; also recorded: not observed regardless of the order of addition | 600 nM | negligible effects; also recorded: time-independent | – | – | –
COC(=O)OCOc1c2n(ccc1=O)N([C@@H]1c3ccccc3SCc3c1ccc(F)c3F)[C@@H]1COCCN1C2=O [BXM, Baloxavir marboxil] | – | – | – | – | – | – | up to 50 fold | up to tenfold | up to 50 fold
